The source of these data is ChEMBL document CHEMBL1136601, “Substituted aminopyridines as potent and selective phosphodiesterase-4 inhibitors” (Bioorg Med Chem Lett, 2003).

One may read the IC50 as the concentration needed to halve the response being measured. The low end stands for greater potency, the high end for weaker potency. Broadly, the Cmax is the highest concentration seen after dosing. One may read the bioavailability as dose-corrected exposure relative to a reference, in per cent. In general, half-life refers to the time needed for the level to fall by half in the phase considered. Read a high half-life as slow decline.

Calls of active or inactive are those of the source. Some results are limits rather than exact numbers.

For series [1], the target named is 3',5'-cyclic-AMP phosphodiesterase 4A (Homo sapiens, UniProt P27815). Kind of series: Inhibitory activity against human PDE4A expressed isoform using construct representing the common region of spliced variants as GST-fusion protein in Sf9 cells.
The species named for the next series is Homo sapiens. As to the kind of experiment: Inhibition of LPS-induced TNF-alpha production in human whole blood. Format: functional, organism-based.
Series [2] in a line: Cmax in rats after 20 mg/kg oral dose. Format: ADME, organism-based. The arrangement: dose 20 mg/kg, route oral. As to conditions: rat, in vivo.
The test system of series [3] is Ovis aries. As to the kind of experiment: In vivo inhibition of ovalbumin-induced bronchoconstriction in sheep late phase at 20 mg/kg ip dose 2 hr prior to challenge. To be noted: route intraperitoneal. Format: functional.
Series [4] in a line: Oral bioavailability (dose 20 mg/kg p.o.). Format: ADME, organism-based. As to conditions: rat, in vivo.
The nature of series [5]: Half life period after intravenous administration at 5 mg/kg in rat. The class given is ADME, organism-based. The arrangement: dose 5 mg/kg, route intravenous. To be noted: in vivo.
In series [6] the test system is Ovis aries. Kind of series: In vivo inhibition of ovalbumin-induced bronchoconstriction in sheep early phase at 20 mg/kg ip dose 30 hr prior to challenge. The class given is functional. As to conditions: route intraperitoneal.
The test system of series [7] is Cavia porcellus. Kind of series: In vivo inhibition of ovalbumin-induced bronchoconstriction in conscious guinea pig at 1 mg/kg ip dose 30 hr prior to challenge. The class given is functional. As to conditions: route intraperitoneal.
A short description of series [8]: Cmax in ferrets after 30 mg/kg oral dose. Format: ADME, organism-based, Mustela putorius furo. Further details: dose 30 mg/kg, route oral. To be noted: ferret, in vivo.
The subject of the next series is Mustela putorius furo. Kind of series: Emesis in ferrets at 30 mg/kg oral dose. Format: functional.
The subject of series [9] is Ovis aries. As to the kind of experiment: In vivo inhibition of ovalbumin-induced bronchoconstriction in sheep early phase at 2.0 mg/kg ip dose 4 hr prior to challenge. The class given is functional. To be noted: route intraperitoneal.
The test system of series [10] is Cavia porcellus. As to the kind of experiment: In vivo inhibition of ovalbumin-induced bronchoconstriction in conscious guinea pig at 1 mg/kg ip dose 4 hr prior 4 hr to challenge. The class given is functional. As to conditions: route intraperitoneal.
The subject of series [11] is Ovis aries. As to the kind of experiment: In vivo inhibition of ovalbumin-induced bronchoconstriction in sheep late phase at 2.0 mg/kg ip dose 2 hr prior to challenge. The class given is functional. As to conditions: route intraperitoneal.

Chain of 3',5'-cyclic-AMP phosphodiesterase 4A (P27815 whole entry, looked up, stated change not applied, the tested form may be a part, canonical isoform): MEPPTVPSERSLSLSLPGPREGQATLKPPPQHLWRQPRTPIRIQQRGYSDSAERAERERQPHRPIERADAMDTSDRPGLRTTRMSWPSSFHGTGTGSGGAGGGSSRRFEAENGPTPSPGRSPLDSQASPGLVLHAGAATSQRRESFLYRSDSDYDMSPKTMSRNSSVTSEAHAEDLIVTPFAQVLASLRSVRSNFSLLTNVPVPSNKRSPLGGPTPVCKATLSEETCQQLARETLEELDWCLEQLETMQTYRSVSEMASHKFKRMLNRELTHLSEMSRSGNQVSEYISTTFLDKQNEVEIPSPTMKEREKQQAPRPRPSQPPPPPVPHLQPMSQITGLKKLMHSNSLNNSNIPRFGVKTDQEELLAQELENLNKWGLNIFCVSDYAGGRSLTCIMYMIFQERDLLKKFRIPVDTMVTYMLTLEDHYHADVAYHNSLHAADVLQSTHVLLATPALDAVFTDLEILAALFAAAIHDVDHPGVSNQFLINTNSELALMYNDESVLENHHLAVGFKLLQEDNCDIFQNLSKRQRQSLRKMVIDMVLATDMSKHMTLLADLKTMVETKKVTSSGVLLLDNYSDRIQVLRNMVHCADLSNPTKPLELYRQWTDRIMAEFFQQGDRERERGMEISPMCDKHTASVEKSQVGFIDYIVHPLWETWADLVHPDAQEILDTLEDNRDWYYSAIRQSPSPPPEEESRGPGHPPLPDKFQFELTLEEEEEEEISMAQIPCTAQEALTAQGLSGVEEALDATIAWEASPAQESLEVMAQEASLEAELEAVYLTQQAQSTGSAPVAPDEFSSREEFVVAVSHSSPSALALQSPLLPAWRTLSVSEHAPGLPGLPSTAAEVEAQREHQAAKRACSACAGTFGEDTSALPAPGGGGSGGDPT

For the molecule `CC(C)(Nc1ccc(C(Cc2cc[n+]([O-])cc2)c2ccc(OC(F)F)c(OC(F)F)c2)cn1)c1ccccc1` (stereo in doubt; (+)-3n), the results for the IC50 (in series [1]; in the series filed under Homo sapiens) were 23 nM and 10000 nM, respectively.

On to `CCN(Cc1ccccc1)c1ccc(C(Cc2cc[n+]([O-])cc2)c2ccc(OC(F)F)c(OC(F)F)c2)cn1` (stereo not given), for which the IC50 worked out at 2.3 nM in series [1] and 400 nM in the series filed under Homo sapiens (Homo sapiens, Blood).

Regarding `CC(=O)Nc1ccc(C(Cc2cc[n+]([O-])cc2)c2ccc(OC(F)F)c(OC(F)F)c2)cn1` (stereo not given), the IC50 amounted to 33 nM in [1] and 1800 nM in the series filed under Homo sapiens (Homo sapiens, Blood).

For the molecule `CC(C)(Nc1ccc(C(Cc2cc[n+]([O-])cc2)c2ccc(OC(F)F)c(OC(F)F)c2)cn1)c1ccccc1` (single isomer, unassigned; (-)), the Cmax in [2] was found to be 2.4 µM. For the same molecule, the IC50 came to 0.8 nM in series [1] and 100 nM in the series listed under Homo sapiens. In addition, the Efficacy with Ovis aries [3] is given as 97%; in the series on Ovis aries [6], 64%; with Cavia porcellus [7] it was 54%. In series [4], this molecule yielded a bioavailability of 100%. This molecule also gave a half-life in [5] of 2 h.

`O=C(Cc1ccccc1)Nc1ccc(C(Cc2cc[n+]([O-])cc2)c2ccc(OC(F)F)c(OC(F)F)c2)cn1` (stereo not given): the IC50 in series [1] is 7.8 nM; in the series filed under Homo sapiens (Homo sapiens, Blood), 3800 nM.

With `Cc1c[n+]([O-])ccc1CC(c1ccc(C(O)(C(F)(F)F)C(F)(F)F)cc1)c1ccc(OC(F)F)c(OC(F)F)c1` (stereo not given), the IC50 in series [1] stood at 1.3 nM; in the series listed under Homo sapiens (Homo sapiens, Blood), 300 nM.

As to `CC(C)(Nc1ccc(C(Cc2cc[n+]([O-])cc2)c2ccc(OC(F)F)c(OC(F)F)c2)cn1)c1ccccc1` (stereo in doubt; 3n), the IC50 in [1] stood at 1.6 nM; in the series filed under Homo sapiens it was 200 nM.

As for `CN(c1ccccc1)c1ccc(C(Cc2cc[n+]([O-])cc2)c2ccc(OC(F)F)c(OC(F)F)c2)cn1` (stereo not given), the IC50 in series [1] came to 0.8 nM; in the series listed under Homo sapiens (Homo sapiens, Blood) it was 2100 nM.

On to `O=S(=O)(Nc1ccc(C(Cc2cc[n+]([O-])cc2)c2ccc(OC(F)F)c(OC(F)F)c2)cn1)c1ccccc1` (stereo not given), for which the IC50 in series [1] turned out to be 16 nM; in the series listed under Homo sapiens (Homo sapiens, Blood) it was 34000 nM.

Take `CC(C)Nc1ccc(C(Cc2cc[n+]([O-])cc2)c2ccc(OC(F)F)c(OC(F)F)c2)cn1` (stereo not given): the half-inhibitory concentration (IC50) worked out at 12 nM in series [1] and 800 nM in the series filed under Homo sapiens (Homo sapiens, Blood).

With `CC(C)(C)N(Cc1ccccc1)c1ccc(C(Cc2cc[n+]([O-])cc2)c2ccc(OC(F)F)c(OC(F)F)c2)cn1` (stereo not given), the IC50 in series [1] was determined as 18 nM; in the series filed under Homo sapiens (Homo sapiens, Blood), 17000 nM.

Regarding `CN(CCc1ccccc1)c1ccc(C(Cc2cc[n+]([O-])cc2)c2ccc(OC(F)F)c(OC(F)F)c2)cn1` (stereo not given), the IC50 was 5.8 nM in series [1] and 800 nM in the series filed under Homo sapiens (Homo sapiens, Blood).

Take `[O-][n+]1ccc(CC(c2ccc(C(O)(C(F)(F)F)C(F)(F)F)cc2)c2ccc(OC(F)F)c(OC(F)F)c2)cc1` (stereo not given): the maximum concentration (Cmax) in series [8] was 16 µM; in series [2] it was 3.5 µM. Further, 4.2 nM corresponded to half-maximal inhibition in series [1] (IC50). The Emesis_ED result in the series with Mustela putorius furo was “inactive”. The Efficacy in the series on Ovis aries [9] is 85%; in the series with Cavia porcellus [10], 58%; in the series on Ovis aries [11], 95%. In [4], this molecule yielded a bioavailability of 70%. In addition, in series [5], the half-life is greater than 24 h.

With `CCN(c1ccc(C(Cc2cc[n+]([O-])cc2)c2ccc(OC(F)F)c(OC(F)F)c2)cn1)[C@H](C)c1ccccc1` (stereo not given in full), the IC50 amounted to 0.6 nM in series [1] and 200 nM in the series filed under Homo sapiens (Homo sapiens, Blood).

Consider `CN(Cc1ccccc1)c1ccc(C(Cc2cc[n+]([O-])cc2)c2ccc(OC(F)F)c(OC(F)F)c2)cn1` (stereo not given), for which the IC50 in series [1] is 1.2 nM; in the series listed under Homo sapiens (Homo sapiens, Blood), 300 nM.

Regarding `[O-][n+]1ccc(CC(c2ccc(NCc3ccccc3)nc2)c2ccc(OC(F)F)c(OC(F)F)c2)cc1` (stereo not given), the IC50 stood at 1.2 nM in series [1] and 400 nM in the series filed under Homo sapiens (Homo sapiens, Blood).

Consider `CN(Cc1ccc2ccccc2c1)c1ccc(C(Cc2cc[n+]([O-])cc2)c2ccc(OC(F)F)c(OC(F)F)c2)cn1` (stereo not given), for which the IC50 was determined as 1.5 nM in [1] and 300 nM in the series listed under Homo sapiens (Homo sapiens, Blood).

As to `CC(C)N(Cc1ccccc1)c1ccc(C(Cc2cc[n+]([O-])cc2)c2ccc(OC(F)F)c(OC(F)F)c2)cn1` (stereo not given), the IC50 stood at 9.3 nM in series [1] and 1000 nM in the series filed under Homo sapiens (Homo sapiens, Blood).

Turning to `CCNC(=O)Nc1ccc(C(Cc2cc[n+]([O-])cc2)c2ccc(OC(F)F)c(OC(F)F)c2)cn1` (stereo not given), the IC50 in [1] was found to be 8.3 nM; in the series filed under Homo sapiens (Homo sapiens, Blood), 1700 nM.

Consider `C[C@H](c1ccccc1)N(C)c1ccc(C(Cc2cc[n+]([O-])cc2)c2ccc(OC(F)F)c(OC(F)F)c2)cn1` (stereo not given in full), for which the IC50 in series [1] stood at 0.3 nM; in the series listed under Homo sapiens (Homo sapiens, Blood) it was 700 nM.

In the case of `C[C@@H](Nc1ccc(C(Cc2cc[n+]([O-])cc2)c2ccc(OC(F)F)c(OC(F)F)c2)cn1)c1ccccc1` (stereo not given in full), the IC50 is 1.7 nM in series [1] and 900 nM in the series filed under Homo sapiens (Homo sapiens, Blood).

With `Cc1ccc(CCNc2ccc(C(Cc3cc[n+]([O-])cc3)c3ccc(OC(F)F)c(OC(F)F)c3)cn2)cc1` (stereo not given), the IC50 turned out to be 2.3 nM in series [1] and 800 nM in the series listed under Homo sapiens (Homo sapiens, Blood).

In the case of `Nc1ccc(C(Cc2cc[n+]([O-])cc2)c2ccc(OC(F)F)c(OC(F)F)c2)cn1` (stereo not given), the IC50 amounted to 31 nM in series [1] and 1600 nM in the series filed under Homo sapiens (Homo sapiens, Blood).

As to `[O-][n+]1ccc(CC(c2ccc(N3CCCC3)nc2)c2ccc(OC(F)F)c(OC(F)F)c2)cc1` (stereo not given), in series [1], inhibition was half-maximal at 31 nM (IC50).
